The kinase profiling compilation of Christmann-Franck et al. (2016)

Assays:
Test in all cases: KINOMEscan competition binding
Conditions in all cases: compound 10.0 µM
STK32A (human) = STK32A (human) (UniProt Q8WU08)
CDK16 (human) = CDK16 (human) (UniProt Q00536)
RAF1 (human) = RAF1 (human) (UniProt P04049)
PLK3 (human) = PLK3 (human) (UniProt Q9H4B4)
MYO3B (human) = MYO3B (human) (UniProt Q8WXR4)
MAP3K7 (human) = MAP3K7 (human) (UniProt O43318)
ADCK3 (human) = ADCK3 (human) (UniProt Q8NI60)
MAPK13 (human) = MAPK13 (human) (UniProt O15264)
PIK3CA (human) = PIK3CA (human) (UniProt P42336)
CSNK1D (human) = CSNK1D (human) (UniProt P48730)
TNNI3K (human) = TNNI3K (human) (UniProt Q59H18)
CSK (human) = CSK (human) (UniProt P41240)
MAP2K7 (human) = MAP2K7 (human) (UniProt O14733)
PAK6 (human) = PAK6 (human) (UniProt Q9NQU5)
CDK14 (human) = CDK14 (human) (UniProt O94921)
MAPK7 (human) = MAPK7 (human) (UniProt Q13164)
PTK2B (human) = PTK2B (human) (UniProt Q14289)
RPS6KA1 KD2 (human) = RPS6KA1 KD2 (human) (UniProt Q15418)
MAK (human) = MAK (human) (UniProt P20794)
MAP3K6 (human) = MAP3K6 (human) (UniProt O95382)
MAP3K4 (human) = MAP3K4 (human) (UniProt Q9Y6R4)
CIT (human) = CIT (human) (UniProt O14578)
TYRO3 (human) = TYRO3 (human) (UniProt Q06418)
CDKL1 (human) = CDKL1 (human) (UniProt Q00532)
MAPK14 (human) = MAPK14 (human) (UniProt Q16539)
TXK (human) = TXK (human) (UniProt P42681)
PIK3CB (human) = PIK3CB (human) (UniProt P42338)
PDGFRB (human) = PDGFRB (human) (UniProt P09619)
TNK2 (human) = TNK2 (human) (UniProt Q07912)
STK33 (human) = STK33 (human) (UniProt Q9BYT3)
TAOK1 (human) = TAOK1 (human) (UniProt Q7L7X3)
CSNK1A1 (human) = CSNK1A1 (human) (UniProt P48729)
EPHA5 (human) = EPHA5 (human) (UniProt P54756)
PTK6 (human) = PTK6 (human) (UniProt Q13882)
CDK15 (human) = CDK15 (human) (UniProt Q96Q40)
ULK1 (human) = ULK1 (human) (UniProt O75385)
CSF1R (human) = CSF1R (human) (UniProt P07333)
PI4KB (human) = PI4KB (human) (UniProt Q9UBF8)
BRSK2 (human) = BRSK2 (human) (UniProt Q8IWQ3)
CDK18 (human) = CDK18 (human) (UniProt Q07002)
Chain of CDK18 (human) (Q07002 whole entry, looked up): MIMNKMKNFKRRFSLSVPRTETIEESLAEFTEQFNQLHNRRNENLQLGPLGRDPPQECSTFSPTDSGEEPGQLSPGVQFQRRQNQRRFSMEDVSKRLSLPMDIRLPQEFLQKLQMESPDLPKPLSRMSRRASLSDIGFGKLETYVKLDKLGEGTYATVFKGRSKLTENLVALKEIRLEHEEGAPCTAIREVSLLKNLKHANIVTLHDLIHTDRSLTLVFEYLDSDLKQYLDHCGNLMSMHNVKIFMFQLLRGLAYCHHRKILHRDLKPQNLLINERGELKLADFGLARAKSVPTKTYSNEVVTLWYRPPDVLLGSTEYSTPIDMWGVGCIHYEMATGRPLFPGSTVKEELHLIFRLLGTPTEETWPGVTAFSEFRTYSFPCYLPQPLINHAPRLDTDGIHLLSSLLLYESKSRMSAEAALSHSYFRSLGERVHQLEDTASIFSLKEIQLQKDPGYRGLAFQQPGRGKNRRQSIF

Chain of CSNK1D (human) (P48730 whole entry, looked up): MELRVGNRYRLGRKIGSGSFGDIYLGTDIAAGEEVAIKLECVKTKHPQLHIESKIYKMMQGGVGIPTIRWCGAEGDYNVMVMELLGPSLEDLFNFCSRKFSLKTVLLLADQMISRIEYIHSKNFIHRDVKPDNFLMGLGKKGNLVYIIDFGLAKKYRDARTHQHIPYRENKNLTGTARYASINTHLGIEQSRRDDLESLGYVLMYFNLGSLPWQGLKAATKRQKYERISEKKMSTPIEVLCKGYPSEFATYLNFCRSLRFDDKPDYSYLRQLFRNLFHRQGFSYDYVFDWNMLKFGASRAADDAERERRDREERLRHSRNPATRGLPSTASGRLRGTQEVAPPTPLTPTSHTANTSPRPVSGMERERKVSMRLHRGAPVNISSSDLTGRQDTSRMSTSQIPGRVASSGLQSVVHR
Chain of MYO3B (human) (Q8WXR4 whole entry, looked up): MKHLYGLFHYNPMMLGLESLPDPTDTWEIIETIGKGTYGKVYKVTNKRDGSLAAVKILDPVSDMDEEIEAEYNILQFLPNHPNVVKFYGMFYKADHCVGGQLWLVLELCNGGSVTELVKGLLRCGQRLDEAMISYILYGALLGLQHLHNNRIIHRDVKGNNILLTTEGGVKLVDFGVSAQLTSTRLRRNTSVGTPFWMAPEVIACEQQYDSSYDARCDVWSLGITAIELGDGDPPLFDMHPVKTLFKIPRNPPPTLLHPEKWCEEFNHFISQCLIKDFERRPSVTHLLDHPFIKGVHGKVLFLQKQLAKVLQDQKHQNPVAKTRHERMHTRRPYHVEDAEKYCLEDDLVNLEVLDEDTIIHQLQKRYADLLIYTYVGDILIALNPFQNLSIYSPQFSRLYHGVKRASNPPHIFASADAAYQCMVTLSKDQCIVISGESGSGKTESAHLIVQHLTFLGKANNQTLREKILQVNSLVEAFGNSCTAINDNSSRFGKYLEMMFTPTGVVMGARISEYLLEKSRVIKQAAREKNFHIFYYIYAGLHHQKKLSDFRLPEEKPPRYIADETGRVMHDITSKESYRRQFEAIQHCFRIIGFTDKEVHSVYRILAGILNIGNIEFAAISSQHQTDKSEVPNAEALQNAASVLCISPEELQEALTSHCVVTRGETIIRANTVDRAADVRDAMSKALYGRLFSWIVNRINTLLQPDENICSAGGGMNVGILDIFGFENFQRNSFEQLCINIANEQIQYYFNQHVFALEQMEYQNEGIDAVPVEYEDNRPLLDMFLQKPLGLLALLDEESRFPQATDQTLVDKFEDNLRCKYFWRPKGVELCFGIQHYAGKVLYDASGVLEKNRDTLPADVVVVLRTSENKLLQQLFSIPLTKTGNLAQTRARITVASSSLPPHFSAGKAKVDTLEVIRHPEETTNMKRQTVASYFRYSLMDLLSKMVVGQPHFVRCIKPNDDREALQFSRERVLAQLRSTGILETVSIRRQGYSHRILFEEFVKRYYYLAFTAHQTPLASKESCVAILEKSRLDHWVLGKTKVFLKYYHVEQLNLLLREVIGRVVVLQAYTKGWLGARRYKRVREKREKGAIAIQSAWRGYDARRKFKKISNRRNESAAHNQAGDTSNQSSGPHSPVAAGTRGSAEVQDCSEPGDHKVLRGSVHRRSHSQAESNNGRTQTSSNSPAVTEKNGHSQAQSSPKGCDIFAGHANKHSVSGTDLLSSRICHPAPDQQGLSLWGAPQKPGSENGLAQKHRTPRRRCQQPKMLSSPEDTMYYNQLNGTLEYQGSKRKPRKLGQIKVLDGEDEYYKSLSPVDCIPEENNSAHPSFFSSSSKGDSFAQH
Chain of BRSK2 (human) (Q8IWQ3 whole entry, looked up): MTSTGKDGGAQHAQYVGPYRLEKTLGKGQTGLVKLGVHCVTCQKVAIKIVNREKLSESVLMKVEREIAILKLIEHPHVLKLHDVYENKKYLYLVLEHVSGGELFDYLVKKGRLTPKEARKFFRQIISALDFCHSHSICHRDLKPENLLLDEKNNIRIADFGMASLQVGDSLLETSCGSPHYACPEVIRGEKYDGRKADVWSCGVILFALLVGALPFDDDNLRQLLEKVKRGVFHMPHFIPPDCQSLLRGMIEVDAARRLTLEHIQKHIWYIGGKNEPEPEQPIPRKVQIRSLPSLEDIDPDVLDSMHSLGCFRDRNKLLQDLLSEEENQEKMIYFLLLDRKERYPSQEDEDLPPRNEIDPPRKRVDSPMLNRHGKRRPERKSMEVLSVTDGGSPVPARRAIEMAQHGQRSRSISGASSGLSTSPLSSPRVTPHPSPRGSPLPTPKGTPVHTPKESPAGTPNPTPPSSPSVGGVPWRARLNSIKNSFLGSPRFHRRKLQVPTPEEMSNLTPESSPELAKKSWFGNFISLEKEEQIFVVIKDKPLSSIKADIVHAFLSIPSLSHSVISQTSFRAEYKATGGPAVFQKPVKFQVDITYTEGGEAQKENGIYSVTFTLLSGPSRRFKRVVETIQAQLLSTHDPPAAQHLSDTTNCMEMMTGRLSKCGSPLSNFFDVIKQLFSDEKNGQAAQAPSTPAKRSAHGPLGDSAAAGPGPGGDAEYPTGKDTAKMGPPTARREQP
Chain of STK33 (human) (Q9BYT3 whole entry, looked up): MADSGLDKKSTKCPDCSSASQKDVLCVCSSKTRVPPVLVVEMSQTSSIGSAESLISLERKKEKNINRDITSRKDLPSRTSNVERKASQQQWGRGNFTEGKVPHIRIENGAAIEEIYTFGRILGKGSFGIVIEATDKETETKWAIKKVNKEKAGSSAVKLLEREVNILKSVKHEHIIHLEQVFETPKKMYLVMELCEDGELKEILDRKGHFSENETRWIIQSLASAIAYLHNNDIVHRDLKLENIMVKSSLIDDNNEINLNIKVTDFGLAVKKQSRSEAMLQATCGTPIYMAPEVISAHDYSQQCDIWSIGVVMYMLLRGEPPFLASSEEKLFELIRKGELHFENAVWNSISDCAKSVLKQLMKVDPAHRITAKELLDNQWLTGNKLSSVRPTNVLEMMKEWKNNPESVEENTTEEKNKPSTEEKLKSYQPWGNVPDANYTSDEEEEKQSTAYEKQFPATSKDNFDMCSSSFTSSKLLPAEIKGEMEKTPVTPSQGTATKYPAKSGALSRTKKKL
Chain of CDKL1 (human) (Q00532 whole entry, looked up): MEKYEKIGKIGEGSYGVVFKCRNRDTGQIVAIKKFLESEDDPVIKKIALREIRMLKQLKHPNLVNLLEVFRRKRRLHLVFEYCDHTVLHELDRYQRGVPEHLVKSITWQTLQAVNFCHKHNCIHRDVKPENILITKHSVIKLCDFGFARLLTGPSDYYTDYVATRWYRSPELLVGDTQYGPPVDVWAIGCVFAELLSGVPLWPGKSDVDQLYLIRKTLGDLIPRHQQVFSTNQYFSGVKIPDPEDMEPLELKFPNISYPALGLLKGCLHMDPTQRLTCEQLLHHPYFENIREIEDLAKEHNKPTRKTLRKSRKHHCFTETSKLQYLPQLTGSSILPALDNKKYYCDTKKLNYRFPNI
Chain of MAK (human) (P20794 whole entry, looked up): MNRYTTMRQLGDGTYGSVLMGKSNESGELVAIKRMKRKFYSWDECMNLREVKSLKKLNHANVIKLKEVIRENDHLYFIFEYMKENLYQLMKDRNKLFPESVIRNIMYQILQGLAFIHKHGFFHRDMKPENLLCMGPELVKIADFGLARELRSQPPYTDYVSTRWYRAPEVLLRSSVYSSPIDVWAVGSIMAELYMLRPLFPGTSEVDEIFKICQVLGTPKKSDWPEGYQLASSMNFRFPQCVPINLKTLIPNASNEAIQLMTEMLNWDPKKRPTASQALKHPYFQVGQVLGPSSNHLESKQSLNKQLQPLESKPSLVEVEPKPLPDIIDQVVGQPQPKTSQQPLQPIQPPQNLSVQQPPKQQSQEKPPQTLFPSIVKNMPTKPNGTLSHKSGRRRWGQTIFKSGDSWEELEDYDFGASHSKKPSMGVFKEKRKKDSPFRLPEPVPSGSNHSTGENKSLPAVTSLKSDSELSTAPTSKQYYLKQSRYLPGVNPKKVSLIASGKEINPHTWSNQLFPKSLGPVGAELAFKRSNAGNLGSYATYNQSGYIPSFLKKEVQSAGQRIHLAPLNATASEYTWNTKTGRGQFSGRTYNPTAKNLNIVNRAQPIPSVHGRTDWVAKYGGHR
Chain of MAPK14 (human) (Q16539 whole entry, looked up): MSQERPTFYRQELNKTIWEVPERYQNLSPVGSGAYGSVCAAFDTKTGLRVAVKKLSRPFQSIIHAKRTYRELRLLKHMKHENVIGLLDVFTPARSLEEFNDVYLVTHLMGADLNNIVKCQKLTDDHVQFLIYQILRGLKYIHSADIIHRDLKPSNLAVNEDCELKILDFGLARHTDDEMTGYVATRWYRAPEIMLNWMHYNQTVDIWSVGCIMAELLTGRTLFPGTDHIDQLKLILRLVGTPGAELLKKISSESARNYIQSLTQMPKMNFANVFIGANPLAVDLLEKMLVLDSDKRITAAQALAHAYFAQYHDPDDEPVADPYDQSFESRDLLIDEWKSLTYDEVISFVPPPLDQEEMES

Row | SMILES | kinase still bound, per cent of control (STK32A (human)) [%] | kinase still bound, per cent of control (RAF1 (human)) [%] | kinase still bound, per cent of control (PLK3 (human)) [%] | kinase still bound, per cent of control (MYO3B (human)) [%] | kinase still bound, per cent of control (MAP3K7 (human)) [%] | kinase still bound, per cent of control (ADCK3 (human)) [%] | kinase still bound, per cent of control (MAPK13 (human)) [%] | kinase still bound, per cent of control (PIK3CA (human)) [%] | kinase still bound, per cent of control (CSNK1D (human)) [%] | kinase still bound, per cent of control (TNNI3K (human)) [%] | kinase still bound, per cent of control (CSK (human)) [%] | kinase still bound, per cent of control (MAP2K7 (human)) [%] | kinase still bound, per cent of control (PAK6 (human)) [%] | kinase still bound, per cent of control (CDK14 (human)) [%] | kinase still bound, per cent of control (MAPK7 (human)) [%] | kinase still bound, per cent of control (PTK2B (human)) [%] | kinase still bound, per cent of control (RPS6KA1 KD2 (human)) [%] | kinase still bound, per cent of control (MAK (human)) [%] | kinase still bound, per cent of control (MAP3K6 (human)) [%] | kinase still bound, per cent of control (MAP3K4 (human)) [%] | also measured
1 | CCN1CCN(Cc2ccc(Nc3ncc4c(n3)N(C)c3ccccc3C(=O)N4C)cc2C(F)(F)F)CC1 | 81 | 100 | 100 | 100 | 17 | 78 | 100 | 25 | 32 | 78 | 93 | 100 | 79 | 100 | 0.1 | 96 | 23 | 100 | 100 | 81 | kinase still bound, per cent of control (CDK16 (human)): 92%; kinase still bound, per cent of control (CIT (human)): 99%; kinase still bound, per cent of control (TYRO3 (human)): 92%; kinase still bound, per cent of control (CDKL1 (human)): 98%; kinase still bound, per cent of control (MAPK14 (human)): 100%; kinase still bound, per cent of control (TXK (human)): 34%; kinase still bound, per cent of control (PIK3CB (human)): 68%; kinase still bound, per cent of control (PDGFRB (human)): 56%; kinase still bound, per cent of control (TNK2 (human)): 24%; kinase still bound, per cent of control (STK33 (human)): 36%; kinase still bound, per cent of control (TAOK1 (human)): 0.2%; kinase still bound, per cent of control (CSNK1A1 (human)): 16%; kinase still bound, per cent of control (EPHA5 (human)): 100%; kinase still bound, per cent of control (PTK6 (human)): 29%; kinase still bound, per cent of control (CDK15 (human)): 76%; kinase still bound, per cent of control (ULK1 (human)): 0%; kinase still bound, per cent of control (CSF1R (human)): 0.5%; kinase still bound, per cent of control (PI4KB (human)): 100%; kinase still bound, per cent of control (BRSK2 (human)): 42%; kinase still bound, per cent of control (CDK18 (human)): 97%
2 | CCOc1cc2ncc(C#N)c(Nc3ccc(OCc4ccccn4)c(Cl)c3)c2cc1NC(=O)/C=C/CN(C)C | 77 | 100 | 94 | 100 | 90 | 95 | 99 | 86 | 60 | 100 | 13 | 49 | 74 | 97 | 100 | 90 | 85 | 100 | 87 | 4.8 | kinase still bound, per cent of control (CIT (human)): 95%; kinase still bound, per cent of control (TYRO3 (human)): 100%; kinase still bound, per cent of control (CDKL1 (human)): 100%; kinase still bound, per cent of control (MAPK14 (human)): 91%; kinase still bound, per cent of control (TXK (human)): 86%; kinase still bound, per cent of control (PIK3CB (human)): 100%; kinase still bound, per cent of control (PDGFRB (human)): 69%; kinase still bound, per cent of control (TNK2 (human)): 40%; kinase still bound, per cent of control (STK33 (human)): 42%; kinase still bound, per cent of control (TAOK1 (human)): 83%; kinase still bound, per cent of control (CSNK1A1 (human)): 100%; kinase still bound, per cent of control (EPHA5 (human)): 100%; kinase still bound, per cent of control (PTK6 (human)): 100%; kinase still bound, per cent of control (CDK15 (human)): 98%; kinase still bound, per cent of control (ULK1 (human)): 100%; kinase still bound, per cent of control (CSF1R (human)): 68%; kinase still bound, per cent of control (PI4KB (human)): 100%; kinase still bound, per cent of control (BRSK2 (human)): 100%; kinase still bound, per cent of control (CDK18 (human)): 96%
3 | Cc1ccc2nc(NCCN)c3ncc(C)n3c2c1 | 100 | 100 | 94 | 100 | 100 | 61 | 100 | 100 | 45 | 100 | 100 | 100 | 100 | 100 | 0.7 | 100 | 46 | 100 | 100 | 100 | kinase still bound, per cent of control (CIT (human)): 100%; kinase still bound, per cent of control (TYRO3 (human)): 100%; kinase still bound, per cent of control (CDKL1 (human)): 74%; kinase still bound, per cent of control (MAPK14 (human)): 98%; kinase still bound, per cent of control (TXK (human)): 90%; kinase still bound, per cent of control (PIK3CB (human)): 88%; kinase still bound, per cent of control (PDGFRB (human)): 57%; kinase still bound, per cent of control (TNK2 (human)): 100%; kinase still bound, per cent of control (STK33 (human)): 73%; kinase still bound, per cent of control (TAOK1 (human)): 66%; kinase still bound, per cent of control (CSNK1A1 (human)): 68%; kinase still bound, per cent of control (EPHA5 (human)): 100%; kinase still bound, per cent of control (PTK6 (human)): 99%; kinase still bound, per cent of control (CDK15 (human)): 100%; kinase still bound, per cent of control (CSF1R (human)): 16%; kinase still bound, per cent of control (PI4KB (human)): 100%; kinase still bound, per cent of control (BRSK2 (human)): 100%; kinase still bound, per cent of control (CDK18 (human)): 100%
